The values below come from ChEMBL document CHEMBL1201862, “PubChem BioAssay data set” (2004).

Broadly, the GI50 is the concentration that inhibits growth by half.

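Method: 48-hour compound exposure of cells in 96-well plates, five concentrations, linear interpolation of endpoints. At the GI50, growth is halved.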 The source made the active and inactive calls. Cut-off read from the data, not from the text of the source: active = GI50 up to about 1.1 µM and inactive = higher.

Test systems include A498; ACHN; COLO 205; DU-145; HL-60; KM12; NCI-H460; OVCAR-4; RPMI-8226; SF-268; SK-OV-3; SNB-19; SNB-75; T47D; UACC-62; UO-31; HCT-15; PC-3; SR; M14.
Holding throughout (experiment): DTP human tumour cell line panel, 48 h

`Cc1nc(Nc2ccc(Cl)c(Cl)c2)sc1C(=O)/C=C/c1ccc2c(c1)OCO2`: the GI50 with A498 is 23.3 µM (inactive); in the assay with ACHN, 16.8 µM (inactive); with COLO 205, 24.7 µM (inactive); in the assay with DU-145 it was > 10 µM (inactive); with HL-60 it was 18.9 µM (inactive); with KM12 it was 20.9 µM (inactive). In addition, the GI50 in the assay with NCI-H460 was 34.5 µM (inactive); with OVCAR-4, 17.8 µM (inactive); with RPMI-8226, 17.1 µM (inactive); with SF-268, 24.3 µM (inactive); with SK-OV-3, 18.7 µM (inactive); in the assay on SNB-19 it was 21.5 µM (inactive). In addition, the GI50 was 14.4 µM (inactive) in the assay on SNB-75, 42.5 µM (inactive) in the assay with T47D, 37.6 µM (inactive) in the assay on UACC-62 and 16.9 µM (inactive) with UO-31.
On to `CCOC(=O)C(NC(=O)OC(C)(C)C)C(=O)OCC`, for which the GI50 is > 100 µM (inactive) in the assay on ACHN; > 100 µM (inactive) with COLO 205; > 100 µM (inactive) in the assay with DU-145; over 100 µM with HCT-15; > 100 µM (inactive) with KM12; > 100 µM (inactive) in the assay with NCI-H460. In addition, the GI50 in the assay on OVCAR-4, with PC-3, in the assay with RPMI-8226, in the assay on SF-268, in the assay with SK-OV-3 and in the assay on SNB-19 was > 100 µM (inactive) in each case. Further, the GI50 with SNB-75, in the assay with SR, with T47D, in the assay on UACC-62 and in the assay on UO-31 was > 100 µM (inactive) each time.
For the molecule `CCC1C2C=CC(CC2)N1S(=O)(=O)c1ccc(C)cc1` (stereo unspecified), the GI50 in the assay with A498 was 33.9 µM (inactive); in the assay on ACHN it was 35.9 µM (inactive); in the assay with COLO 205, 21.7 µM (inactive); with HCT-15, 22.8 µM; with HL-60 it was 4.22 µM (inactive); with KM12, 24.4 µM (inactive). In addition, the GI50 is 31 µM (inactive) in the assay on M14; 23 µM (inactive) in the assay with NCI-H460; 31.8 µM (inactive) in the assay on OVCAR-4; 12.9 µM (inactive) in the assay with RPMI-8226; 20.8 µM (inactive) with SF-268; 26.1 µM (inactive) in the assay on SK-OV-3. Moreover, the GI50 in the assay with SNB-19 is 24.4 µM (inactive); with SNB-75, > 10 µM (inactive); with SR, 22.4 µM (inactive); in the assay on UACC-62 it was 11.2 µM (inactive); in the assay on UO-31 it was 12.9 µM (inactive).
As to `Cc1ccc(NC(=O)C(=O)Cc2cc[n+]([O-])cc2)cc1`, the GI50 is > 100 µM (inactive) in the assay on A498; > 100 µM (inactive) in the assay with ACHN; > 100 µM (inactive) with COLO 205; over 100 µM with HCT-15; > 100 µM (inactive) in the assay on HL-60; > 100 µM (inactive) in the assay with KM12. Moreover, the GI50 in the assay with M14, with NCI-H460, in the assay with OVCAR-4, with RPMI-8226, in the assay on SF-268 and in the assay with SK-OV-3 was > 100 µM (inactive) throughout. Also, the GI50 with SNB-19, in the assay on SNB-75, in the assay with SR, with UACC-62 and in the assay with UO-31 was > 100 µM (inactive) throughout.
As for `Cc1c2ccccc2c(C)c2c3c(ccc12)C(=O)C=CC3=O`, the GI50 in the assay on A498 is > 100 µM (inactive); in the assay on ACHN it was 17.8 µM (inactive); with COLO 205, 15.7 µM (inactive); in the assay with HCT-15, 19.1 µM; with HL-60, 2.15 µM (inactive); in the assay on KM12, 27.3 µM (inactive). In addition, the GI50 with M14 was 30 µM (inactive); in the assay on NCI-H460, > 67.6 µM (inactive); in the assay with OVCAR-4 it was 23.4 µM (inactive); in the assay on RPMI-8226, 29.9 µM (inactive); in the assay with SF-268, 18.4 µM (inactive); with SK-OV-3, > 60.5 µM (inactive). For the same molecule, the GI50 in the assay with SNB-19 is > 100 µM (inactive); with SNB-75 it was > 63.5 µM (inactive); in the assay on SR it was 8.36 µM (inactive); in the assay on UACC-62, 35.8 µM (inactive); in the assay with UO-31 it was 18.2 µM (inactive).
For the molecule `Cc1ccc(S(=O)(=O)CC2CCCn3c2c(C#N)c2ccccc23)cc1` (stereo unspecified), the GI50 with A498 is > 100 µM (inactive); with ACHN it was > 100 µM (inactive); in the assay with COLO 205 it was > 100 µM (inactive); in the assay on DU-145 it was > 100 µM (inactive); in the assay on HCT-15, over 100 µM; in the assay with KM12, > 100 µM (inactive). Besides, the GI50 is > 100 µM (inactive) in the assay on M14; > 100 µM (inactive) with OVCAR-4; 54.2 µM (inactive) in the assay on PC-3; > 100 µM (inactive) with RPMI-8226; > 100 µM (inactive) in the assay on SF-268; > 100 µM (inactive) with SK-OV-3. Further, the GI50 with SNB-19 was > 100 µM (inactive); with SNB-75, > 100 µM (inactive); in the assay with T47D, 73.3 µM (inactive); with UACC-62 it was 57.4 µM (inactive); with UO-31, > 100 µM (inactive).
Regarding `COc1ccc(C#CCC(OC2OC(CO)C(O)C(O)C2O)C(O)c2ccc(OC)c(OC)c2)cc1OC` (stereo unspecified), the GI50 is > 100 µM (inactive) with A498; > 100 µM (inactive) in the assay on ACHN; > 100 µM (inactive) with COLO 205; over 100 µM with HCT-15; 61.1 µM (inactive) in the assay with HL-60; > 100 µM (inactive) in the assay on KM12. Further, the GI50 in the assay on M14, with NCI-H460, in the assay with OVCAR-4, with RPMI-8226, in the assay with SF-268 and in the assay with SK-OV-3 was > 100 µM (inactive) each time. In addition, the GI50 with SNB-19 was > 100 µM (inactive); in the assay with SNB-75 it was > 100 µM (inactive); in the assay with SR it was > 100 µM (inactive); in the assay with UACC-62, 61.7 µM (inactive); in the assay on UO-31 it was > 100 µM (inactive).
As to `C/C(=N\n1c(Cc2ccccc2)n[nH]c1=O)c1ccc([N+](=O)[O-])cc1`, the GI50 in the assay with COLO 205 is > 100 µM (inactive); in the assay with DU-145 it was > 100 µM (inactive); in the assay on HCT-15 it was over 100 µM; in the assay on HL-60 it was > 100 µM (inactive); in the assay on KM12, > 100 µM (inactive); in the assay with M14, > 100 µM (inactive). Further, the GI50 in the assay on NCI-H460 was > 100 µM (inactive); in the assay on OVCAR-4, > 100 µM (inactive); with PC-3 it was > 100 µM (inactive); in the assay with RPMI-8226, 50.4 µM (inactive); in the assay on SNB-19 it was > 100 µM (inactive); with T47D, 94 µM (inactive). The GI50 in the assay with UACC-62 and with UO-31 was > 100 µM (inactive) in each case.
`Cc1ccc(S(=O)(=O)NN=C2C(C)(C)CC2(C)C)cc1`: the GI50 in the assay on A498 was > 100 µM (inactive); with ACHN it was > 100 µM (inactive); in the assay with COLO 205, > 100 µM (inactive); in the assay with DU-145 it was > 100 µM (inactive); with HCT-15, over 100 µM; in the assay with HL-60 it was > 100 µM (inactive). Further, the GI50 in the assay on KM12, in the assay on M14, with NCI-H460, in the assay on OVCAR-4, with PC-3 and with SF-268 was > 100 µM (inactive) each time. Besides, the GI50 in the assay on SK-OV-3 is > 100 µM (inactive); in the assay with SNB-19 it was > 100 µM (inactive); in the assay with SNB-75 it was 17.3 µM (inactive); in the assay on T47D it was > 100 µM (inactive); in the assay on UACC-62, > 100 µM (inactive); in the assay on UO-31, > 100 µM (inactive).
For `Cc1cn(CCCCC2=NCCCN2)c(=O)[nH]c1=O`, the GI50 was > 31.8 µM (inactive) in the assay with A498; > 25.2 µM (inactive) in the assay on ACHN; > 31.1 µM (inactive) with COLO 205; > 26.6 µM (inactive) with DU-145; over 32.2 µM in the assay on HCT-15; > 31.3 µM (inactive) in the assay on KM12. For the same molecule, the GI50 in the assay with M14 is > 25.2 µM (inactive); in the assay with NCI-H460 it was > 52.5 µM (inactive); in the assay on OVCAR-4 it was > 29.5 µM (inactive); in the assay with PC-3 it was > 26.7 µM (inactive); in the assay with RPMI-8226 it was > 100 µM (inactive); with SF-268, 1.34 µM (inactive). Besides, the GI50 in the assay on SK-OV-3 was > 29.6 µM (inactive); in the assay with SNB-19, > 52.8 µM (inactive); with SR it was > 28.9 µM (inactive); with UACC-62 it was > 42.2 µM (inactive); in the assay with UO-31 it was > 24.8 µM (inactive).
With `O=NNc1cnc(O)nc1O`, the GI50 in the assay with A498 is 92.7 µM (inactive); in the assay with ACHN, > 100 µM (inactive); with COLO 205, > 100 µM (inactive); in the assay on DU-145, > 100 µM (inactive); with HCT-15, over 100 µM; in the assay with HL-60, 49.3 µM (inactive). For the same molecule, the GI50 with KM12, in the assay on M14, in the assay with OVCAR-4, in the assay on PC-3, in the assay on RPMI-8226 and in the assay on SK-OV-3 was > 100 µM (inactive) each time. The GI50 in the assay on SNB-19 was > 100 µM (inactive); in the assay with SNB-75, 8.75 µM (inactive); in the assay on T47D, > 100 µM (inactive); in the assay with UACC-62 it was 71.3 µM (inactive); in the assay with UO-31, > 100 µM (inactive).
As to `CC(=O)Oc1c2oc3cc(O)c(O)cc3c2c(OC(C)=O)c2oc3cc(O)c(O)cc3c12` [POLYOZELLIN], the GI50 was 20.8 µM (inactive) in the assay with ACHN; 15.4 µM (inactive) in the assay with COLO 205; 25.2 µM in the assay with HCT-15; 3.08 µM (inactive) with HL-60; 20.3 µM (inactive) in the assay on KM12; 23.4 µM (inactive) with M14. Moreover, the GI50 in the assay with NCI-H460 was 18.6 µM (inactive); with OVCAR-4, 19.8 µM (inactive); in the assay on PC-3 it was 19.8 µM (inactive); with RPMI-8226 it was > 10 µM (inactive); in the assay on SF-268 it was 20.7 µM (inactive); with SK-OV-3, 20.8 µM (inactive). Also, the GI50 was 23.7 µM (inactive) in the assay with SNB-19; 15.8 µM (inactive) with SNB-75; 4.4 µM (inactive) with SR; 16.6 µM (inactive) with UACC-62; 21 µM (inactive) with UO-31.
